Test results reported in patent US20060141122A1 (Universitat De Les Illes Balears and Industrias Agricolas …, priority 1999, published 2006).
Structures can show the parent of a compound that is named as a salt.

Assays:
[1] = test system: urinary risk of forming calcium kidney stones; assay: Urinary risk of forming calcium kidney stones, study on 74 individuals with oxalocalcium kidney stones; assay type: in vivo, human; details: for drop of the risk of forming calcium stones: 15 days after treatment start, citrate 6.48 g/day, phytate 120 mg/day, individuals with oxalocalcium kidney stones
Description: These individuals have been divided into three groups: 19 individuals with kidney stones (Group I), 38 individuals with kidney stones (Group II) and 17 individuals with kidney stones (Group III). The urinary risk to form calcium kidney stones was evaluated for each individual before being subjected to any pharmacological treatment.
15 days after treatment starting, the urinary risk of forming calcium kidney stones was evaluated again for each individual.

[2] = Urinary excretion of phytate after dietary intake; assay type: in vivo
[3] = cited from earlier work

SMILES | drop of the risk of forming calcium stones [1] [%] | maximum urinary excretion as share of the total intake ([2]; diet supplemented with products rich in phytates) | intake above which the excreted amount in urine does not increase ([2]; urinary excretion, dose-dependent up to this intake) | effect on bioavailability of oligoelements such as Zn(II) and Fe(III) ([3]; doses in which maximum excretions are produced) | toxicity ([3]; megadose of 8.8 g/day) | effect on urine pH ([1]; treatment of calcium kidney stones, compared with citrate)
O=C(O)CC(O)(CC(=O)O)C(=O)O [citrate, potassium citrate, reference compound] | 52 |  |  |  |  | 
O=P(O)(O)O[C@H]1[C@H](OP(=O)(O)O)[C@@H](OP(=O)(O)O)[C@H](OP(=O)(O)O)[C@@H](OP(=O)(O)O)[C@H]1OP(=O)(O)O [phytate, inositol hexaphosphate] | 50 | 1-5% | 20.9 mg/kg of body weight | do not affect the bioavailability | does not produce any toxicity | does not cause increases of the urine pH
